Source: PubChem BioAssay AID1963851 (Molecular Pharmacology Branch, DTP, NCI, 2024)
Where “and” joins values, the source holds several entries; their conditions need not be identical. Equal entries are not always repeated.

System: 188146-221-R-J1-PDC complex spheroid viability
Assay: Anticancer human tumor 188146-221-R-J1-PDC patient-derived colon adenocarcinoma cell line growth inhibition [POLQ]
Settings: for viability, T/C: stronger effect = lower value; active means viability on the fitted dose curve at most 10% of control; inactive means the rest
Protocol: Multicellular complex tumor spheroid response to Polymerase (POL) inhibitors (novobiocin, ART-558, RP6685) in combination with a variety of drugs and investigational agents in selected tumor cell lines
The POL inhibitors (novobiocin, ART-558, and RP6685) were evaluated both individually and in combination with standard of care and investigational anticancer small molecules within a complex spheroid model of solid tumors. . Complex spheroids include a stromal component modeled by human endothelial cells (HUVEC) and fibroblasts modeled by human mesenchymal stem cells (MSCs). The concentration ranges selected for each drug and investigational agent were based upon clinically achievable concentrations if the clinical Cmax of the agent was known.
Compounds. The drugs and investigational agents: novobiocin (NSC847541), ART-558 (NSC835418), RP-6685 (NSC848927), peposertib (NSC802822), ceralasertib (NSC780249), elimusertib (NSC800525), camonsertib (NSC841442), AZD-1390 (NSC803789), olaparib (NSC753686), talazoparib (NSC767125), rucaparib (NSC756644), sotorasib (NSC818433), MRTX-1133 (NSC836407), SN-38 (NSC673596), topotecan (NSC609699), epotoside (NSC141540), doxorubicin (NSC123127), gemcitabine (NSC613327), 5-fluorouracil (NSC19893), paclitaxel (NSC125973), vemurafenib (NSC761431), MSA-2 (NSC828583), SN-011 (NSC837082), adavosertib (NSC754352), prexasertib (NSC758257), carboplatin (NSC241240) and oxaliplatin (NSC266046), were obtained from the National Cancer Institute (NCI) Developmental Therapeutics Program Chemical Repository (21). The FDA-approved anticancer drug set is available from the Developmental Therapeutics Program at https://dtp.cancer.gov/organization/dscb/obtaining/. […] The stock solutions were prepared in dimethyl sulfoxide (DMSO, Sigma-Aldrich, St. Louis, MO, cat. D2650), except for the platinum compounds which were prepared in saline (Quality Biological, Gaithersburg, MD, cat. 114-055-101), at 800-fold the tested concentration and stored at -70 degrees C prior to their use. All drugs and investigational agents were tested over a range starting from a high concentration at or near the clinical Cmax and decreasing in half-log increments. If the clinical Cmax for an agent had not been determined, the highest concentration tested was 10 microM, except for SN-38, which was tested at a high concentration of 1 microM.
Cell Culture. All cells were maintained in an incubator at 37 degrees C and 5% CO2 with 95% humidity. The PDC lines were cultured according to standard operating procedures established by the NCI PDMR (https://pdmr.cancer.gov). Table 3 of the manuscript, lists the cell lines along with the number of the three cell types plated to form the mct-spheroids and media for tumor cell growth. After thawing, all PDC lines, except 997537-175-T-J1-PDC and 415267-285-R-J2-PDC, were cultured in Matrigel-coated flasks prepared with a working solution of 1X Ham's F-12 nutrient mix, without supplementation (Thermo Fisher Scientific, cat. 11765054), 100 U/mL penicillin-streptomycin (Thermo Fisher Scientific, cat. 15140122), and 2.5% Matrigel (Corning Inc., Corning, NY, cat. 354248) for the first three passages. The two PDC lines 997537-175-T-J1-PDC and 415267-285-R-J2-PDC were cultured on uncoated flasks. The 857933-349-R-J2-PDC line was cultured in 6C/Colon 1B media containing advanced DMEM/F-12 (Thermo Fisher Scientific, cat. 12634028), 10 mM HEPES (Thermo Fisher Scientific, cat. 15630080), 1X GlutaMAX supplement (Thermo Fisher Scientific, cat. 35050061), 0.1 mg/mL primocin (InvivoGen, San Diego, CA, cat. ant-pm-2), 10% defined fetal bovine serum, heat inactivated (HyClone Laboratories Inc., Logan, UT, cat. SH30070.03HI), 50% L-WRN conditioned media (ATCC, cat. CRL-3276), 1.25 mM N-Acetyl-L-cysteine (Sigma-Aldrich, cat. A9165), 10 mM nicotinamide (Sigma-Aldrich, cat. N0636), 1X B-27 supplement (Thermo Fisher Scientific, cat. 17504044), 1X N-2 supplement (Thermo Fisher Scientific, cat. […]
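Further: spheroids exposed to compounds for seven days.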

COc1cccc(OCCCN)c1-c1cc(Nc2cnc(C#N)cn2)n[nH]1
27.2 nM and 68 nM and 61.2 nM: IC50 (curve of compound)
inactive: viability, T/C (compound 0.00316 µM) 97.7% and 99% and 88.2% | viability, T/C (compound 0.01 µM) 88.1% and 99.5% and 101% | viability, T/C (compound 0.0316 µM) 42.7% and 75.8% and 72.2% | viability, T/C (compound 0.1 µM) 20.7% and 37.1% and 32.8% | viability, T/C (compound 0.316 µM) 12.7% and 16.1% and 16.8% | viability, T/C (compound 1 µM) 9.17% and 13% (2×)

CCc1c2c(nc3ccc(O)cc13)-c1cc3c(c(=O)n1C2)COC(=O)[C@]3(O)CC + Nc1ccc(C#CCN(C(=O)Cc2ncc(C(F)(F)F)cc2C(F)(F)F)c2ccc(F)cc2)nn1
20.7 nM: IC50 (curve of first compound, second compound 0.316 µM)
inactive: viability, T/C (second compound 0.0316 µM, first compound 0.00316 µM) 94.7% | viability, T/C (second compound 0.0316 µM, first compound 0.01 µM) 69.8% | viability, T/C (second compound 0.0316 µM, first compound 0.0316 µM) 35% | viability, T/C (second compound 0.0316 µM, first compound 0.1 µM) 20.9% | viability, T/C (second compound 0.0316 µM, first compound 0.316 µM) 12.5% | viability, T/C (second compound 0.1 µM, first compound 0.00316 µM) 101% | viability, T/C (second compound 0.1 µM, first compound 0.01 µM) 81.1% | viability, T/C (second compound 0.1 µM, first compound 0.0316 µM) 42.1% | viability, T/C (second compound 0.1 µM, first compound 0.1 µM) 18.5% | viability, T/C (second compound 0.1 µM, first compound 0.316 µM) 13.3% | viability, T/C (second compound 0.1 µM, first compound 1 µM) 10.1% | viability, T/C (second compound 0.316 µM, first compound 0.00316 µM) 100% | viability, T/C (second compound 0.316 µM, first compound 0.01 µM) 73.1% | viability, T/C (second compound 0.316 µM, first compound 0.0316 µM) 35.9% | viability, T/C (second compound 0.316 µM, first compound 0.1 µM) 18.3% | viability, T/C (second compound 0.316 µM, first compound 0.316 µM) 12.4% | viability, T/C (second compound 1 µM, first compound 0.00316 µM) 88.9% | viability, T/C (second compound 1 µM, first compound 0.01 µM) 77.8% | viability, T/C (second compound 1 µM, first compound 0.0316 µM) 37.7% | viability, T/C (second compound 1 µM, first compound 0.1 µM) 22.3% | viability, T/C (second compound 1 µM, first compound 0.316 µM) 13.7% | viability, T/C (second compound 1 µM, first compound 1 µM) 8.08% | viability, T/C (second compound 3.16 µM, first compound 0.00316 µM) 90.5% | viability, T/C (second compound 3.16 µM, first compound 0.01 µM) 89.7% | viability, T/C (second compound 3.16 µM, first compound 0.0316 µM) 42.2% | viability, T/C (second compound 3.16 µM, first compound 0.1 µM) 19.3% | viability, T/C (second compound 3.16 µM, first compound 0.316 µM) 12.6% | viability, T/C (second compound 3.16 µM, first compound 1 µM) 8.98% | viability, T/C (second compound 10 µM, first compound 0.00316 µM) 98.6% | viability, T/C (second compound 10 µM, first compound 0.01 µM) 75.3% | viability, T/C (second compound 10 µM, first compound 0.0316 µM) 38.9% | viability, T/C (second compound 10 µM, first compound 0.1 µM) 22.6% | viability, T/C (second compound 10 µM, first compound 0.316 µM) 15.7% | viability, T/C (second compound 10 µM, first compound 1 µM) 8.14%
23.2 nM: IC50 (curve of first compound, second compound 1 µM) | IC50 (curve of first compound, second compound 10 µM)
active: viability, T/C (second compound 0.0316 µM, first compound 1 µM) 7.87% | viability, T/C (second compound 0.316 µM, first compound 1 µM) 8.23%
19.8 nM: IC50 (curve of first compound, second compound 0.0316 µM)
25.1 nM: IC50 (curve of first compound, second compound 0.1 µM)
26.5 nM: IC50 (curve of first compound, second compound 3.16 µM)

O=C(Nc1ccc(O)c(NS(=O)(=O)c2ccc(F)cc2)c1)c1ccc(-c2ccccc2)cc1
inactive: viability, T/C (compound 0.0316 µM) 93.2% and 100% and 110% | viability, T/C (compound 0.1 µM) 98.5% and 107% and 104% | viability, T/C (compound 0.316 µM) 89.5% and 95.1% and 93.5% | viability, T/C (compound 1 µM) 93.2% and 103% and 118% | viability, T/C (compound 3.16 µM) 99.4% and 81.3% and 100% | viability, T/C (compound 10 µM) 59.1% and 73.5% and 78.4%
> 10000 nM: IC50 (curve of compound)

COc1ccc([C@@H](O)c2cc(-c3ncnc4cc(N5CCOCC5)ccc34)c(F)cc2Cl)nn1
5750 nM and 7260 nM and 5430 nM: IC50 (curve of compound)
inactive: viability, T/C (compound 0.0316 µM) 102% and 91.7% and 100% | viability, T/C (compound 0.1 µM) 101% and 92.3% and 96.1% | viability, T/C (compound 0.316 µM) 90.7% and 97.8% and 96.1% | viability, T/C (compound 1 µM) 90.2% and 101% and 91.3% | viability, T/C (compound 3.16 µM) 68.4% and 78.3% and 67.7% | viability, T/C (compound 10 µM) 32.3% and 39.1% and 29.9%

Cn1ncnc1[C@H]1c2n[nH]c(=O)c3cc(F)cc(c23)N[C@@H]1c1ccc(F)cc1
inactive: viability, T/C (compound 0.000316 µM) 102% and 97.5% and 109% | viability, T/C (compound 0.001 µM) 112% and 93.3% and 103% | viability, T/C (compound 0.00316 µM) 89.9% and 107% and 95.2% | viability, T/C (compound 0.01 µM) 99.5% and 108% and 103% | viability, T/C (compound 0.0316 µM) 104% and 87% and 114% | viability, T/C (compound 0.1 µM) 95.4% and 95.5% and 82.1%
> 100 nM: IC50 (curve of compound)
